Results on 14 compounds are retold here after ChEMBL document CHEMBL5634110, “Applications of oxetanes in drug discovery and medicinal chemistry” (Eur J Med Chem, 2023).

Broadly, the EC50 is the concentration at which the effect is half-maximal. By Papp is commonly meant a coefficient for how fast a substance crosses the barrier. In general, IC50 refers to the concentration that inhibits the measured activity by half. For orientation: solubility means how much of the substance goes into solution per volume. As usually defined, the half-life is the time in which the quantity being followed falls by half. One may read the AUC as concentration integrated over time. By Ki is commonly meant the dissociation constant of the complex between target and ligand, obtained from inhibition or displacement. One may read the GI50 as the concentration giving 50% growth inhibition. A word on the AUC(0-t): it is the area under the concentration-time curve up to a stated or last time point. Usually Tmax stands for the time at which the peak concentration occurs.

For data set [1], the system named is Human orthopneumovirus. Put plainly: Antiviral activity against RSV type B assessed as viral growth inhibition. Type of data set: functional, organism-based. As to conditions: human respiratory syncytial virus.
The nature of data set [2]: Apparent permeability of compound in phosphate buffer by PAMPA assay. Type of data set: ADME. (PAMPA measures passive passage across an artificial lipid membrane.)
Data set [3] in a line: Oral bioavailability in rat at 2 mg/kg. Type of data set: ADME, organism-based. As to conditions: in vivo.
The nature of data set [4]: Oral bioavailability in monkey at 5 mg/kg. Type of data set: ADME, organism-based, Macaca mulatta. As to conditions: rhesus monkey, in vivo.
For data set [5], the target named is T1, Developmentally-regulated GTP-binding protein 1 (Homo sapiens, UniProt Q9Y295).
T1 sequence (Q9Y295 whole entry): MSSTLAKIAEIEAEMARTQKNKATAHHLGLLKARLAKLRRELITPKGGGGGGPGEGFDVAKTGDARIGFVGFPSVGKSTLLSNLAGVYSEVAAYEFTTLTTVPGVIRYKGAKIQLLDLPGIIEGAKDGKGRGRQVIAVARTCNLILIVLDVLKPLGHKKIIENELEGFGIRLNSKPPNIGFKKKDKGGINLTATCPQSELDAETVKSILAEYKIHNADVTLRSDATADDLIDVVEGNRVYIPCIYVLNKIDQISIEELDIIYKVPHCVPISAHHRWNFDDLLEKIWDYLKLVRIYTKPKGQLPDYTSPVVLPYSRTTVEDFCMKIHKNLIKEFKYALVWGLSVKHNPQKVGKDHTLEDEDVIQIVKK
The data set can be described thus: Inhibition of DRG1 (unknown origin).

Data set [6] can be described thus: Solubility of compound in PBS at pH 7.4. Type of data set: physicochemical.
A short description of data set [7]: Half life in iv dosed rat. Type of data set: ADME, organism-based. As to conditions: in vivo.
A short description of data set [8]: AUC in iv dosed rat. It is filed as ADME, organism-based. To be noted: in vivo.
Data set [9] in a line: Oral bioavailability in rat. It is filed as ADME, organism-based. As to conditions: in vivo.
Data set [10] is described as follows: Intrinsic clearance in human liver microsomes. As to conditions: read-out: CLH. It is filed as ADME, Microsome. On the technique in general: Liver microsomes are a subcellular fraction often used to study metabolism.
A short description of data set [11]: Intrinsic clearance in rat liver microsomes. It is filed as ADME, Microsome.
Data set [12] has as its target Hepatitis C virus NS5B RNA-dependent RNA polymerase (Hepatitis C virus, UniProt Q8JXU8). The data set can be described thus: Inhibition of Hepatitis C virus NS5B polymerase. Also noted: species or system Hepacivirus hominis.
For data set [13], the target named is Collagenase 3 (Homo sapiens, UniProt P45452). The data set can be described thus: Binding affinity to full length human recombinant MMP-13 using Mca-PLGL-Dpa-AR-NH2 as fluorogenic peptide substrate assessed as inhibition constant.
Data set [14] can be described thus: Kinetic solubility of compound in PBS buffer at 500 uM incubated for 18 hrs by HPLC analysis. As to conditions: read-out: Kinetic_solubility. Type of data set: physicochemical.
Data set [15] can be described thus: Metabolic stability in human liver microsomes assessed as half life at 1 uM incubated for 60 mins by LC-MS/MS analysis. Type of data set: ADME, Microsome.
Data set [16] is described as follows: Metabolic stability in rat liver microsomes assessed as half life at 1 uM incubated for 60 mins by LC-MS/MS analysis. Type of data set: ADME, Microsome.
Data set [17] can be described thus: Metabolic stability in mouse liver microsomes assessed as half life at 1 uM incubated for 60 mins by LC-MS/MS analysis. Type of data set: ADME, Microsome.
In data set [18] the test system is Z-138. The data set can be described thus: Growth inhibition of human Z138 cells. Type of data set: functional.
The nature of data set [19]: Inhibition of GST fused Bcl-xL (unknown origin) incubated for 5 min by TR-FRET assay. Also noted: species or system Homo sapiens. On the technique in general: Time-resolved FRET reads energy transfer from a long-lived donor to a nearby acceptor.
Data set [20] concerns the target Apoptosis regulator Bcl-2 (Homo sapiens, UniProt P10415). The data set can be described thus: Inhibition of Bcl-2 (unknown origin) by fluorescence polarization assay.
Data set [21] in a line: AUC (0 to 24 hrs) in rat at 5 mg/kg, po. Type of data set: ADME, organism-based. As to conditions: in vivo.
Data set [22] in a line: Tmax in rat at 5 mg/kg, po. Type of data set: ADME, organism-based. To be noted: in vivo.
Data set [23] in a line: Solubility of compound at pH 6.8. Type of data set: physicochemical. To be noted: buffer.
Data set [24] in a line: Intrinsic clearance in mouse liver microsomes. Type of data set: ADME, Microsome. As to conditions: read-out: CLH.

Converted amounts (≈) assume the structure as drawn.

Sequence of Hepatitis C virus NS5B RNA-dependent RNA polymerase (Q8JXU8 whole entry): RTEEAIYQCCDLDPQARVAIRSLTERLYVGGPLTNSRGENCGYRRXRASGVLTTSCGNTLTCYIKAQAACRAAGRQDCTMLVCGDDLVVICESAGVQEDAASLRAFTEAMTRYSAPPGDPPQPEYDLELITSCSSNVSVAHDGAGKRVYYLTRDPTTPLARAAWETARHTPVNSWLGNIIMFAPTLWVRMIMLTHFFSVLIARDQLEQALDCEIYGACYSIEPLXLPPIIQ
Sequence of Apoptosis regulator Bcl-2 (P10415 whole entry): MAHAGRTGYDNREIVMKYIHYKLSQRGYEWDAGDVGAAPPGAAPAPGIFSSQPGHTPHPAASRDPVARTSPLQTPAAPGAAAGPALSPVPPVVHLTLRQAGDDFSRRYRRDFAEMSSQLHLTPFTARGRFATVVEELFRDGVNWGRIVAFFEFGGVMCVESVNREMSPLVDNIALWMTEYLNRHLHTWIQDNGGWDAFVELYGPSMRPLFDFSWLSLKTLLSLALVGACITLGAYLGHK

With `O=C(NC1CC1)c1cc2c(s1)-c1ccccc1N(C(=O)c1ccc(NC(=O)c3cccnc3N3CCC4(CC3)COC4)cc1)CC2`, the EC50 in data set [1] is above 100000 nM.

As for `COC(C)(C)C#Cc1cnc2c(c1)[C@]1(COC(N)=N1)c1cc(-c3cccnc3F)ccc1O2`, the Papp in [2] turned out to be 12 ×10⁻⁶ cm/s.

On to `CC(C)(O)C#Cc1cnc2c(c1)[C@]1(COC(N)=N1)c1cc(-c3cccnc3F)ccc1O2`, for which the Papp in [2] is 11 ×10⁻⁶ cm/s. Also, the bioavailability in data set [3] worked out at 70%; in [4], 101%.

For the compound `CC(=O)N1CCC(c2cc(Nc3cc(C#N)ccn3)nc(N3CCC(F)(F)C3)c2)CC1`, the half-inhibitory concentration (IC50) in [5] came out at 180 nM.

For `COC(=O)Nc1nc2cc(C(=O)c3ccc(N(C)C4COC4)cc3)ccc2[nH]1`, the concentration in solution in data set [6] (solubility) came to 137 µg/mL (≈ 360 µM). Moreover, the half-life in [7] is 5.5 h. Also, in data set [8], the AUC was 469 ng·h/mL. Besides, the bioavailability in data set [9] was 73.1%.

With `COc1cc(C(F)(F)F)ccc1COc1cccc(N2C=NN(Cc3nc4c(F)cc(C(=O)O)cc4n3C[C@@H]3CCO3)CC2)n1`, the microsomal CLint in data set [10] turned out to be 12 µL/min/mg. Besides, the CLH in data set [11] came to 12 µL/min/mg.

On to `COc1cc(C#N)ccc1COc1cccc(N2C=NN(Cc3nc4c(F)cc(C(=O)O)cc4n3C[C@@H]3CCO3)CC2)n1`, for which, in data set [10], the microsomal CLint is 6 µL/min/mg.

Consider `Nc1nc2c(ncn2[C@@H]2O[C@H](COP(=O)(O)OP(=O)(O)OP(=O)(O)O)[C@@H](O)[C@@]23CCO3)c(=O)[nH]1`, for which the 50% inhibitory concentration (IC50) in data set [12] was determined as 10000 nM.

For `CC(C)[C@H](NC(=O)c1ccc(-c2ccc(CNc3nc4c(c(=O)[nH]3)CCC4)c(F)c2)o1)C(=O)NC1COC1`, in data set [13], the Ki worked out at 10.3 nM. In addition, the solubility kinetic at 18 h, 500 µM in data set [14] was found to be 32.7 µM (≈ 17.1 µg/mL). Besides, the half-life at 1 µM in data set [15] was determined as 1.1 h; in data set [16] it was 1.67 h; in data set [17], 1.58 h. In data set [18], this compound had a GI50 of 20 nM.

On to `CC(C)[C@H](NC(=O)c1ccc(-c2ccc(CCc3nc4c(c(=O)[nH]3)CCC4)c(F)c2)o1)C(=O)NC1COC1`, for which the Ki in data set [13] amounted to 12.2 nM. For the same compound, in data set [14], the solubility kinetic at 18 h, 500 µM stood at 76.4 µM (≈ 39.9 µg/mL). Further, the half-life at 1 µM in data set [15] amounted to 1.02 h; in data set [16], 1.03 h; in data set [17] it was 1.73 h.

As to `CC1(C)CCC(c2ccc(Cl)cc2)=C(CN2CCN(c3ccc(C(=O)NS(=O)(=O)c4ccc(OCC5(CN6CC(F)(F)C6)COC5)c(S(=O)(=O)C(F)(F)F)c4)cc3)CC2)C1`, the IC50 came out at 105 nM in [19] and 17.3 nM in [20].

For the compound `CO[C@H]1C[C@@H](C)C/C(C)=C/[C@@H](C/C=C/C2(O)COC2)C(=O)C[C@H](O)[C@@H](C)[C@@H](/C(C)=C/[C@@H]2CC[C@@H](O)[C@H](OC)C2)OC(=O)[C@@H]2CCCCN2C(=O)C(=O)[C@]2(O)O[C@H]1[C@@H](OC)C[C@H]2C`, the AUC(0-t) in data set [21] is 49100 ng·h/mL. For the same compound, in data set [22], the Tmax is 1 h.

With `CC1(C)CCC(c2ccc(Cl)cc2)=C(CN2CCN(c3ccc(C(=O)NS(=O)(=O)c4ccc(N[C@H](CCN5CCOCC5)CSc5ccccc5)c(S(=O)(=O)C(F)(F)F)c4)cc3)CC2)C1` [NAVITOCLAX], half-maximal inhibition in data set [19] (IC50) was put at 8.2 nM.

As to `C=CC[C@@H]1/C=C(\C)C[C@H](C)C[C@H](OC)[C@H]2O[C@@](O)(C(=O)C(=O)N3CCCC[C@H]3C(=O)O[C@H](/C(C)=C/[C@@H]3CC[C@@H](O)[C@H](OC)C3)[C@H](C)[C@@H](O)CC1=O)[C@H](C)C[C@@H]2OC` [TACROLIMUS ANHYDROUS], in data set [23], the solubility was 28 µM (≈ 22.5 µg/mL). Moreover, in data set [24], the microsomal CLint worked out at 306 µL/min/mg. The same compound had an AUC(0-t) in data set [21] of 2490 ng·h/mL. In addition, in [22], the Tmax came to 1 h.
